According to paper PMC13463089, “PA200 modulates immunoproteasome structure and activity” (Nature Communications, 2026):

Assays:
[1] = molecular target: T1, i20S-PA200 complex (PA200 / PSME4 bound to the immunoproteasome) (Homo sapiens, UniProt Q14997); assay: cryo-EM structure ([…] and […] A); assay type: binding; settings: two IP6 molecules in the two positively charged grooves of PA200; density assigned by analogy to s20S-PA200 structures
T1 construct: recombinant purified human PA200, about 200 kDa, one or two copies per 20S; human i20S commercial (cryo-EM) or purified from HEK293-EBNA (activity); with Proteasome subunit beta type-8; Proteasome subunit beta type-9; Proteasome subunit beta type-10; Proteasome subunit alpha type-6; Proteasome subunit alpha type-2; Proteasome subunit alpha type-4; Proteasome subunit alpha type-7; Proteasome subunit alpha type-5; Proteasome subunit alpha type-1; Proteasome subunit alpha type-3; Proteasome subunit beta type-3; Proteasome subunit beta type-2; Proteasome subunit beta type-1; Proteasome subunit beta type-4

[2] = molecular target: T2, s20S-PA200 complex (PA200 / PSME4 bound to the standard proteasome) (Homo sapiens, UniProt Q14997); assay: fluorogenic peptide assay of […] activity; assay type: biochemical; settings: PA200 21.5 nM preincubated with 70 uM IP6, s20S 1.5 nM; pH 7.6, 37 C
T2 construct: recombinant purified human PA200 mixed with purified human s20S; with Proteasome subunit beta type-5; Proteasome subunit beta type-6; Proteasome subunit beta type-7; Proteasome subunit alpha type-6; Proteasome subunit alpha type-2; Proteasome subunit alpha type-4; Proteasome subunit alpha type-7; Proteasome subunit alpha type-5; Proteasome subunit alpha type-1; Proteasome subunit alpha type-3; Proteasome subunit beta type-3; Proteasome subunit beta type-2; Proteasome subunit beta type-1; Proteasome subunit beta type-4

[3] = molecular target: T1, i20S-PA200 complex (PA200 / PSME4 bound to the immunoproteasome); assay: fluorogenic peptide assay of […] activity; assay type: biochemical; settings: PA200 21.5 nM preincubated with 70 uM IP6, i20S 1.5 nM; substrates LLVY, ANW, PAL, LRR; pH 7.6, 37 C; activator

T1 sequence (Q14997 whole entry): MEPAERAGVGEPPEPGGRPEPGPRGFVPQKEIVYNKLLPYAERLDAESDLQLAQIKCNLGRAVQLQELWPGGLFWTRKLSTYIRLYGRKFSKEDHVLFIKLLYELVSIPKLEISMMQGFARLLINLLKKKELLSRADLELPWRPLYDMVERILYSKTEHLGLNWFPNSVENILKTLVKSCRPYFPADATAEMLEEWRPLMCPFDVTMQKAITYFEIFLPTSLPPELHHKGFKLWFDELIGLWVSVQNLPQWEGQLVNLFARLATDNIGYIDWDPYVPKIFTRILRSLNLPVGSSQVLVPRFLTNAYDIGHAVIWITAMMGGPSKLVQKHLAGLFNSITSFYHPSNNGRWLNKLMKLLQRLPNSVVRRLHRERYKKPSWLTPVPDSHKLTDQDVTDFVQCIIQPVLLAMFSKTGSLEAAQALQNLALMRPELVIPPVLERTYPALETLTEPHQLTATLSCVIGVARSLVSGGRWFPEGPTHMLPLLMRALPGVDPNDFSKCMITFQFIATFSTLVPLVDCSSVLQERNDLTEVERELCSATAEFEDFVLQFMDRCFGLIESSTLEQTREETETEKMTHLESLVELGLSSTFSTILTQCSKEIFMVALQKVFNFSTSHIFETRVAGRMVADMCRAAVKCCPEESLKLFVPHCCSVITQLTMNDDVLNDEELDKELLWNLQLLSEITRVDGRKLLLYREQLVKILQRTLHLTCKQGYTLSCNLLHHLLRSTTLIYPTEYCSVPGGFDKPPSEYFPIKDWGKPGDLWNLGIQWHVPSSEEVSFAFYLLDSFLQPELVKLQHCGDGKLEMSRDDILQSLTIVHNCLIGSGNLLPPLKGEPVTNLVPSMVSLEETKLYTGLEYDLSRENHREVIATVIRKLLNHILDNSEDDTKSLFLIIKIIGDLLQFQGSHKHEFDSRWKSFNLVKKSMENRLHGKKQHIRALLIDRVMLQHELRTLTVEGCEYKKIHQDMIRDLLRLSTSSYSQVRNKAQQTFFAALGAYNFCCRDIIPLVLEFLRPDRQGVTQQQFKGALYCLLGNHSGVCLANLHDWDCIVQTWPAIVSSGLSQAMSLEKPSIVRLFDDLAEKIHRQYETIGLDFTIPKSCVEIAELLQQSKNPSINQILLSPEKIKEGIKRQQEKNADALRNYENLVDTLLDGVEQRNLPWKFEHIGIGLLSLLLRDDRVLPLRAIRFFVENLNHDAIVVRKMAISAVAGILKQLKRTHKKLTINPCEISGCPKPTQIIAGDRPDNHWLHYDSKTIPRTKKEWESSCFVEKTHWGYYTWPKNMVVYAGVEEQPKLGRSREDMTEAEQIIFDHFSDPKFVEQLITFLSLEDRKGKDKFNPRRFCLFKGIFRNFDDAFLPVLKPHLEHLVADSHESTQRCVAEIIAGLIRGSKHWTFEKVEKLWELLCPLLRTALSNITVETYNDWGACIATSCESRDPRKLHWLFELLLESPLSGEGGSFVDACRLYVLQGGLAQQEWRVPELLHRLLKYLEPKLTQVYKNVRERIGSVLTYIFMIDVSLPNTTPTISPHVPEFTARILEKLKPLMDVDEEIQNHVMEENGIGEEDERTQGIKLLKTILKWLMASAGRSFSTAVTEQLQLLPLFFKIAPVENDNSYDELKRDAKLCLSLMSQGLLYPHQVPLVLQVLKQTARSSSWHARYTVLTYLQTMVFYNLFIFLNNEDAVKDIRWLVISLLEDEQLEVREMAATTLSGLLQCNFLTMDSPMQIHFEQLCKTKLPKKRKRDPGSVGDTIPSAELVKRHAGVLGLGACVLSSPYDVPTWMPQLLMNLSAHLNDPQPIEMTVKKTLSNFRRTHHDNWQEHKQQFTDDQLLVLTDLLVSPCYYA
T1 sequence (P28062 73-276 partner): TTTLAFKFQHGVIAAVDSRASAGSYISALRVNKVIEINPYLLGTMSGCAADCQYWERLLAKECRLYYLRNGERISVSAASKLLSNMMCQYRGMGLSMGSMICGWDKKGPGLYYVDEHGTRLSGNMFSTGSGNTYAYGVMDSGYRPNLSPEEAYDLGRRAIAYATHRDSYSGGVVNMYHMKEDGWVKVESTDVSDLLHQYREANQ
T1 sequence (P28065 21-219 partner): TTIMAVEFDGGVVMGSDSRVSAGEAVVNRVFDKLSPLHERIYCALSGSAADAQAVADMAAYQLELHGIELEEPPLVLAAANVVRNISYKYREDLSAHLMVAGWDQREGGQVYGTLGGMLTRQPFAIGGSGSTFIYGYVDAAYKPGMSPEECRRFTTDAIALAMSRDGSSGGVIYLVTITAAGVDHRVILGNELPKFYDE
T1 sequence (P40306 40-273 partner): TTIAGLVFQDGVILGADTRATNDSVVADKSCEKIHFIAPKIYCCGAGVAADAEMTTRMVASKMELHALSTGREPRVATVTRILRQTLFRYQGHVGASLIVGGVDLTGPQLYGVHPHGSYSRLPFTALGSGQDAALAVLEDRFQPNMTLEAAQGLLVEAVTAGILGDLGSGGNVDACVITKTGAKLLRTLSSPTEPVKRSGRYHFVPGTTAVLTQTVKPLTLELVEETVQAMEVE
T2 sequence (Q14997 whole entry): as the sequence (Q14997 whole entry) above
T2 sequence (P28074 60-263 partner): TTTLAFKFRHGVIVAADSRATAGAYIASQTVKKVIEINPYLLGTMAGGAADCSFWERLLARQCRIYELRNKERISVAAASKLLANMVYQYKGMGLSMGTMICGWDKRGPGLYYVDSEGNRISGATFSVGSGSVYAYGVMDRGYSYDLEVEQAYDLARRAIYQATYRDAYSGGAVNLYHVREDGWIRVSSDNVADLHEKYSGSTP
T2 sequence (P28072 35-239 partner): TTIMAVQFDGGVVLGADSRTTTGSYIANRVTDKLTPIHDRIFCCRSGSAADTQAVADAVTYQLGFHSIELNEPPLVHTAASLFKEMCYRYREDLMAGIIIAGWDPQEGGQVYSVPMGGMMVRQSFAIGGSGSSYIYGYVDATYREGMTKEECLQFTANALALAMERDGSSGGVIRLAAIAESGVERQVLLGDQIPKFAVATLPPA
T2 sequence (Q99436 44-277 partner): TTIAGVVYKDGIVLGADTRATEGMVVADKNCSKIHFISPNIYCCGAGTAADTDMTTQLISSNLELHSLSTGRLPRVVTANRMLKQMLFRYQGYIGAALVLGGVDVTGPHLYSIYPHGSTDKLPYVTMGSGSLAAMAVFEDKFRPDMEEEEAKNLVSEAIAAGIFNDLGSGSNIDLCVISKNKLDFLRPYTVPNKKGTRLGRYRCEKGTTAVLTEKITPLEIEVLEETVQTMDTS

## O=P(O)(O)O[C@H]1[C@H](OP(=O)(O)O)[C@@H](OP(=O)(O)O)[C@H](OP(=O)(O)O)[C@@H](OP(=O)(O)O)[C@H]1OP(=O)(O)O [IP6]
[1]
  cryo-EM structure (2.85 and 2.89 A): we assigned these densities to two molecules of IP6
[2]
  relative activity: Effect of phytic acid (IP6) on PA200-activated i20S (B, dark blue bars) and s20S
[3]
  relative activity: strong increase of the three activities that are specific for the i20S
